Source: the supplement of paper PMC6411743

compound: Nc1ncnc2c1ncn2[C@@H]1O[C@H](COP(=O)(O)OP(=O)(O)OP(=O)(O)O)[C@@H](O)[C@H]1O [adenosine triphosphate]; assay: pEC50 of ATP-induced change in protein thermal stability (2D-TPP)
Method in brief: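 Soluble protein was quantified by TMT LC-MS/MS after ultracentrifugation of Jurkat crude lysate that had been dosed at five concentrations including vehicle (10 min, room temperature), heated at 12 temperatures of 42–63.9 °C for 3 min, and incubated with NP40 and benzonase at 4 °C for 60 min. Fold changes against vehicle at each temperature were median-normalised, and pEC50 was derived from per-replicate dose-response fits over adjacent temperature pairs. Hits were called with permutation-based false discovery rate control in three independent experiments.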
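Further: lysate dosed with Na-ATP at 0 0.005 0.05 0.5 and 2 mM.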

Sequence of UniProt Q96P70 (Q96P70 whole entry): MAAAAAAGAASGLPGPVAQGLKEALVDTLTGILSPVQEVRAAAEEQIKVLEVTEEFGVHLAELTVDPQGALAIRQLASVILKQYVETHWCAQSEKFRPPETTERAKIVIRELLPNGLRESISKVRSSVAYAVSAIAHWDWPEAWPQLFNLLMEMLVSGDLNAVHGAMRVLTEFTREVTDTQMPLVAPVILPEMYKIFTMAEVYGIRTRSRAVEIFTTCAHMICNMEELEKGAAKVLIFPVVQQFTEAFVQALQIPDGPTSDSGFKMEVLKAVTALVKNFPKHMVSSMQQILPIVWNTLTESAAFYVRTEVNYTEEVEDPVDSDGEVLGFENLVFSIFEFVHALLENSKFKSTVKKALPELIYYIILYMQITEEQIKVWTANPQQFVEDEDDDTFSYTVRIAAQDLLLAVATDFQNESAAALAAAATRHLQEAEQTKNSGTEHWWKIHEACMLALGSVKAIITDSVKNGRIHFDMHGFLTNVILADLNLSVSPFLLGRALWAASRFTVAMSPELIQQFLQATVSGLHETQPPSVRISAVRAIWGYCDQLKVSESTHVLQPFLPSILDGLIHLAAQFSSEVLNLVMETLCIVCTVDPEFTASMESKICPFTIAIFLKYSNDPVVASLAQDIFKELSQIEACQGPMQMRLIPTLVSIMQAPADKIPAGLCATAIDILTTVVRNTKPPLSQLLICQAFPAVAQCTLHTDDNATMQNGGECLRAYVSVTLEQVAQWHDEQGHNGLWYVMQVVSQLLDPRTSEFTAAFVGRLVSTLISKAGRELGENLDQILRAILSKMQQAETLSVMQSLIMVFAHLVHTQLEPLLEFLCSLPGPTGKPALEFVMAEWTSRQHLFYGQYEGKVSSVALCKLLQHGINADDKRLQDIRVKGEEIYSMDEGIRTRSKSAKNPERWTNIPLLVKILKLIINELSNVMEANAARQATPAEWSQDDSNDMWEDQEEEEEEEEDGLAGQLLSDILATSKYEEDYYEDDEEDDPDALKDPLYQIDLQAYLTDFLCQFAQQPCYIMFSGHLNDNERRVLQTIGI
Sequence of UniProt Q4G0J3 (Q4G0J3 whole entry): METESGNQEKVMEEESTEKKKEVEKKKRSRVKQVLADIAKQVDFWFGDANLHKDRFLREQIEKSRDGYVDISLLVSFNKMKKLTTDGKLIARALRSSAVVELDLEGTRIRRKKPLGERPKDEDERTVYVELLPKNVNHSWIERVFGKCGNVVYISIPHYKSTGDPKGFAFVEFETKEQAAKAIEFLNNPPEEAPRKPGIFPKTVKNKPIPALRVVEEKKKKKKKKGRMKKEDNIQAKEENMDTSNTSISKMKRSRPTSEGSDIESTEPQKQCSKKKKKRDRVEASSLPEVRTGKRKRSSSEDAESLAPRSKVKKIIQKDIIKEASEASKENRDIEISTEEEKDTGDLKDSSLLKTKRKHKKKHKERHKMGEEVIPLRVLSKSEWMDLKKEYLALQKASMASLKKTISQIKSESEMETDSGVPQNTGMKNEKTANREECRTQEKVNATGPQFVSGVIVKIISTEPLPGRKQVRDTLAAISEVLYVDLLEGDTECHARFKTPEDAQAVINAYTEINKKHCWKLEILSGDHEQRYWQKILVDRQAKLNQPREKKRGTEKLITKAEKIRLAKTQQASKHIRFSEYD
Sequence of UniProt Q9NS87 (Q9NS87 whole entry): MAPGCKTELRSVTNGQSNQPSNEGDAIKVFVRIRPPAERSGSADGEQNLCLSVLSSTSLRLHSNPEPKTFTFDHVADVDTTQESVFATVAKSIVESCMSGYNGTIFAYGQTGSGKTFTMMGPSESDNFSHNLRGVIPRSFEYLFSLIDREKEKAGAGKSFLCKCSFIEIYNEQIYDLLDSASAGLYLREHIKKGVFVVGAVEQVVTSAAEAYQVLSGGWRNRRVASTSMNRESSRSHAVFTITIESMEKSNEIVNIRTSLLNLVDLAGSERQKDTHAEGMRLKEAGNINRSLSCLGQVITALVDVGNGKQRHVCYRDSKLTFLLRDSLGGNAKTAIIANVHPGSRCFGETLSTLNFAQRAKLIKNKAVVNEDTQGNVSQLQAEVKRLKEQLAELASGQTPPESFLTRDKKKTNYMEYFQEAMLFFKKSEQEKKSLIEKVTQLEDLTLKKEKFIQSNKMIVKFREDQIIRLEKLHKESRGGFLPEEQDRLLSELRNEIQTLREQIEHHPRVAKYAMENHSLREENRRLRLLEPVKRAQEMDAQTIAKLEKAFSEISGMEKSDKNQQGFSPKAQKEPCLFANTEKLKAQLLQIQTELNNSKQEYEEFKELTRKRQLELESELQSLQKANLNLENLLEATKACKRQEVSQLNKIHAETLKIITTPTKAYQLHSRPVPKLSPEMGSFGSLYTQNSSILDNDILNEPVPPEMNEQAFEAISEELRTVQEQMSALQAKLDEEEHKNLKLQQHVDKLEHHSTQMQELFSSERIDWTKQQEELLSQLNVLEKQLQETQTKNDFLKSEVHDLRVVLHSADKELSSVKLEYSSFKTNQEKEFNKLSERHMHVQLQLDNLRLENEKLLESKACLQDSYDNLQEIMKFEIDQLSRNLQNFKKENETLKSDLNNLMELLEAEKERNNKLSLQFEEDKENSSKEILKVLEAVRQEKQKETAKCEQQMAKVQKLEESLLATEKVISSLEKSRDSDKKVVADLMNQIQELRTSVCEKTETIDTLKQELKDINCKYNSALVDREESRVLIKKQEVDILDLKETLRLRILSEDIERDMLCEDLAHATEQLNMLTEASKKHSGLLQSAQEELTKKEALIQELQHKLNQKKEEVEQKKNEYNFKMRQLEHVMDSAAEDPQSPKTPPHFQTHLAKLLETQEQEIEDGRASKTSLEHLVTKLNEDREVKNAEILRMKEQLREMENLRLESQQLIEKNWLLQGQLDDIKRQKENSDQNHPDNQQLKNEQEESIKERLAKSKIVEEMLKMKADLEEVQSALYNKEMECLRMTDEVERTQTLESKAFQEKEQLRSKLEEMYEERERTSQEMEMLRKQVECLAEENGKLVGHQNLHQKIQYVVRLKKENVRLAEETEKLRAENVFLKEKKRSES
Sequence of UniProt O75449 (O75449 whole entry): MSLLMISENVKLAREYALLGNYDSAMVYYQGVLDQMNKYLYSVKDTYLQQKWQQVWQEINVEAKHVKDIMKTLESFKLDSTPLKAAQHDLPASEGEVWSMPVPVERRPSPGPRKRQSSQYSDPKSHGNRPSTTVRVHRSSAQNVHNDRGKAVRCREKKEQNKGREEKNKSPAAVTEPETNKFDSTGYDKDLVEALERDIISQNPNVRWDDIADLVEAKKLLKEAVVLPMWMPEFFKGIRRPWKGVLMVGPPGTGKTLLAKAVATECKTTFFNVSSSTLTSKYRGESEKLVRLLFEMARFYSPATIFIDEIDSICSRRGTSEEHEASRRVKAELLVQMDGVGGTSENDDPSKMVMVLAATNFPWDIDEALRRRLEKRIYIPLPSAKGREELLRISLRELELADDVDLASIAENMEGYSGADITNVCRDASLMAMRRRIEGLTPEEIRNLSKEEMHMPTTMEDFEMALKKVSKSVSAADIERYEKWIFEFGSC
Sequence of UniProt P14866 (P14866 whole entry): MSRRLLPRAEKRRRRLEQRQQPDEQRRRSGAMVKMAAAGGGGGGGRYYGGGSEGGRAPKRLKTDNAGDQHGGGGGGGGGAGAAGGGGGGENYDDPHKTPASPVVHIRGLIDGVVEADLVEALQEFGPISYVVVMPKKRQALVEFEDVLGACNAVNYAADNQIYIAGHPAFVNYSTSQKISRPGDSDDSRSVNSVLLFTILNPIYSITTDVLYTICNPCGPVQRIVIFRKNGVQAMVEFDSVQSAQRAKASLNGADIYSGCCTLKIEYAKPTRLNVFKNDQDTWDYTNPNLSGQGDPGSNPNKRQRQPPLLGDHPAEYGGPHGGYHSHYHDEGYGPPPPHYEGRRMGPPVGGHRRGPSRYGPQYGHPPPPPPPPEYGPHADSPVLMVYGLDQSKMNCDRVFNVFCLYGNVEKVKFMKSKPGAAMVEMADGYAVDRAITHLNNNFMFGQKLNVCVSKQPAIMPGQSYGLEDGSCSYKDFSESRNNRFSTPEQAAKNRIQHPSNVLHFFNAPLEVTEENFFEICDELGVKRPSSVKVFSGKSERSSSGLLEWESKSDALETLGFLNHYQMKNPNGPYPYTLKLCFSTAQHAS
Sequence of UniProt P25205 (P25205 whole entry): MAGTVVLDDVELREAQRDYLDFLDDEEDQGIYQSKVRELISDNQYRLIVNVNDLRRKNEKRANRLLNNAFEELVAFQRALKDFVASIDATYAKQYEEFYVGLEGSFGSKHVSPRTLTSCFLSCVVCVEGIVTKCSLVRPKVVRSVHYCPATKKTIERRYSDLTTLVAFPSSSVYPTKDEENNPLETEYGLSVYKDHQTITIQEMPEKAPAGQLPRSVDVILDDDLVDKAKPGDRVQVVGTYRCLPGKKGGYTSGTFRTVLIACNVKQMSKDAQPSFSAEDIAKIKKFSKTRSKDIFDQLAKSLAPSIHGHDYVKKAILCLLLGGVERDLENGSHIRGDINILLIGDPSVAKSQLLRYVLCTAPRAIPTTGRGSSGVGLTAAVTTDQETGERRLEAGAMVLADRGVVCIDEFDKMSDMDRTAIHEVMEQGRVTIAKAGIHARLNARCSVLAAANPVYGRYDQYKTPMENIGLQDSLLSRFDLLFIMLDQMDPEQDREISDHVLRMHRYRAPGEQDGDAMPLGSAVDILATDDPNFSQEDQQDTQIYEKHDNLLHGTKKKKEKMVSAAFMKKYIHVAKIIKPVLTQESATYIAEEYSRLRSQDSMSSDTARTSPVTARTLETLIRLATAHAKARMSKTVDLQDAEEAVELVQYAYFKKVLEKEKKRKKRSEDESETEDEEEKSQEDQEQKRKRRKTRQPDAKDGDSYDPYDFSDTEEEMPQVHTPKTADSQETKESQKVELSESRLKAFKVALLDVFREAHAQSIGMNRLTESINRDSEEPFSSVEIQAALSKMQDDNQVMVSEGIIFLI
Sequence of UniProt Q9BRT6 (Q9BRT6 whole entry): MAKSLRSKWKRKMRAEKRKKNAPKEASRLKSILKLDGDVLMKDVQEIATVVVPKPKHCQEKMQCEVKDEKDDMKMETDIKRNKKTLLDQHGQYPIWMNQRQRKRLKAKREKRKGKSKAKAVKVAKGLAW

pEC50	Target
3.23	HNRNPL (effect direction: stabilized) (UniProt P14866)
3.04	HNRNPR (effect direction: stabilized) (UniProt O43390)
2.9	HNRNPU (effect direction: stabilized) (UniProt Q00839)
3.39	HNRNPUL2 (effect direction: stabilized) (UniProt Q1KMD3)
3.22	HSD17B7 (effect direction: stabilized) (UniProt P56937)
3.24	HSD17B10 (effect direction: stabilized) (UniProt Q99714)
< 2.7	HSP90AB1 (effect direction: stabilized) (UniProt P08238)
< 2.7	HSPA4 (effect direction: stabilized) (UniProt P34932)
4.09	HSPA8 (effect direction: stabilized) (UniProt P11142)
3.94	HSPA9 (effect direction: stabilized) (UniProt P38646)
2.8	HSPA14 (effect direction: stabilized) (UniProt Q0VDF9)
< 2.7	HTATSF1 (effect direction: stabilized) (UniProt O43719)
< 2.7	HUWE1 (effect direction: stabilized) (UniProt Q7Z6Z7)
< 2.7	IDH3A (effect direction: stabilized) (UniProt P50213)
3.42	IKBKG (effect direction: stabilized) (UniProt Q9Y6K9)
3.13	ILF3 (effect direction: stabilized) (UniProt Q12906)
< 2.7	ILKAP (effect direction: stabilized) (UniProt Q9H0C8)
< 2.7	IMPA2 (effect direction: destabilized) (UniProt O14732)
3.32	IMPDH1 (effect direction: stabilized) (UniProt P20839)
< 2.7	IPO5 (effect direction: stabilized) (UniProt O00410)
3.67	IPO9 (effect direction: destabilized) (UniProt Q96P70)
3.65	IQGAP1 (effect direction: destabilized) (UniProt P46940)
3.3	IRAK4 (effect direction: stabilized) (UniProt Q9NWZ3)

pEC50	Target
2.74	ISG15 (effect direction: stabilized) (UniProt P05161)
3.89	ITPK1 (effect direction: stabilized) (UniProt Q13572)
3.28	ITPR2 (effect direction: stabilized) (UniProt Q14571)
3.3	JAKMIP1 (effect direction: stabilized) (UniProt Q96N16)
3.21	JMJD6 (effect direction: stabilized) (UniProt Q6NYC1)
3.42	KATNA1 (effect direction: stabilized) (UniProt O75449)
3.26	KATNAL1 (effect direction: stabilized) (UniProt Q9BW62)
3.68	KIF1B (effect direction: stabilized) (UniProt O60333)
4.18	KIF2C (effect direction: stabilized) (UniProt Q99661)
4.07	KIF3B (effect direction: stabilized) (UniProt O15066)
4.09	KIF5B (effect direction: stabilized) (UniProt P33176)
3.26	KIF11 (effect direction: stabilized) (UniProt P52732)
3.11	KIF15 (effect direction: stabilized) (UniProt Q9NS87)
3.14	KIF20A (effect direction: stabilized) (UniProt O95235)
3.38	KIF21B (effect direction: stabilized) (UniProt O75037)
3.95	KLC1 (effect direction: stabilized) (UniProt Q07866)
4.06	KLC2 (effect direction: stabilized) (UniProt Q9H0B6)
< 2.7	KLHDC4 (effect direction: stabilized) (UniProt Q8TBB5)
2.96	KPNB1 (effect direction: stabilized) (UniProt Q14974)
2.81	KRI1 (effect direction: destabilized) (UniProt Q8N9T8)
3.86	LAGE3 (effect direction: stabilized) (UniProt Q14657)
< 2.7	LARP1 (effect direction: stabilized) (UniProt Q6PKG0)
3.03	LARP7 (effect direction: stabilized) (UniProt Q4G0J3)

pEC50	Target
3.59	LARS2 (effect direction: stabilized) (UniProt Q15031)
3.56	LCLAT1 (effect direction: stabilized) (UniProt Q6UWP7)
3.8	LEMD2 (effect direction: stabilized) (UniProt Q8NC56)
< 2.7	LLPH (effect direction: stabilized) (UniProt Q9BRT6)
3.65	LRPPRC (effect direction: stabilized) (UniProt P42704)
3.85	LRWD1 (effect direction: stabilized) (UniProt Q9UFC0)
3.22	LUC7L2 (effect direction: stabilized) (UniProt Q9Y383)
3.27	MACROD1 (effect direction: stabilized) (UniProt Q9BQ69)
3.7	MAGED2 (effect direction: destabilized) (UniProt Q9UNF1)
3.63	MAP3K4 (effect direction: stabilized) (UniProt Q9Y6R4)
3.41	MAP4K5 (effect direction: stabilized) (UniProt Q9Y4K4)
< 2.7	MAPRE1 (effect direction: stabilized) (UniProt Q15691)
3.24	MARS2 (effect direction: stabilized) (UniProt Q96GW9)
3.53	MCM3 (effect direction: stabilized) (UniProt P25205)
3.59	MCM5 (effect direction: stabilized) (UniProt P33992)
5	MDH1 (effect direction: stabilized) (UniProt P40925)
2.78	MDH2 (effect direction: stabilized) (UniProt P40926)
< 2.7	MDP1 (effect direction: destabilized) (UniProt Q86V88)
< 2.7	MED20 (effect direction: stabilized) (UniProt Q9H944)
2.82	MEPCE (effect direction: stabilized) (UniProt Q7L2J0)
< 2.7	MIER1 (effect direction: stabilized) (UniProt Q8N108)
3.44	MLKL (effect direction: stabilized) (UniProt Q8NB16)
3.21	MOB2 (effect direction: stabilized) (UniProt Q70IA6)

pEC50	Target
3.95	MOCS3 (effect direction: stabilized) (UniProt O95396)
3.24	MOV10 (effect direction: destabilized) (UniProt Q9HCE1)
3.46	MRPL2 (effect direction: destabilized) (UniProt Q5T653)
4.49	MRPL19 (effect direction: destabilized) (UniProt P49406)
3.37	MRPL30 (effect direction: destabilized) (UniProt Q8TCC3)
3.58	MRPS6 (effect direction: destabilized) (UniProt P82932)
4.46	MRPS22 (effect direction: destabilized) (UniProt P82650)
3.89	MRPS23 (effect direction: destabilized) (UniProt Q9Y3D9)
< 2.7	MRTO4 (effect direction: destabilized) (UniProt Q9UKD2)
< 2.7	MSI2 (effect direction: stabilized) (UniProt Q96DH6)
3.04	MSN (effect direction: destabilized) (UniProt P26038)
3.33	MTHFD1L (effect direction: stabilized) (UniProt Q6UB35)
3.15	MTHFD2 (effect direction: stabilized) (UniProt P13995)
3.62	MTHFSD (effect direction: stabilized) (UniProt Q2M296)
3.13	MTR (effect direction: stabilized) (UniProt Q99707)
2.77	MYBBP1A (effect direction: destabilized) (UniProt Q9BQG0)
3.6	MYH9 (effect direction: stabilized) (UniProt P35579)
4.1	MYH10 (effect direction: stabilized) (UniProt P35580)
3.15	NAGK (effect direction: stabilized) (UniProt Q9UJ70)
3.08	NANP (effect direction: destabilized) (UniProt Q8TBE9)

Target	pEC50
HSP90AA1 (effect direction: stabilized) (UniProt P07900)	> 5.3
